#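 Compound exposure: 48 hours, 5 concentrations, 96-well plates. Abbreviation: GI50, concentration required for 50% inhibition of growth.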 Calls of active or inactive are those of the source. No stated cut-off is given here; in the data, active = GI50 up to about 1.1 µM and inactive = higher.
# Assays:
# Test in all cases: DTP human tumour cell line panel, 48 h
# OVCAR-5 = system: OVCAR-5
# HOP-62 = system: HOP-62
# SNB-78 = system: SNB-78
# HCT-116 = system: HCT-116
# A549 = system: A549
# SF-539 = system: SF-539
# CCRF-CEM = system: CCRF-CEM
# SK-MEL-5 = system: SK-MEL-5
# M19-MEL = system: M19-MEL
# IGROV-1 = system: IGROV-1
# KM12 = system: KM12
# NCI-H522 = system: NCI-H522
# SK-MEL-28 = system: SK-MEL-28
# HOP-92 = system: HOP-92
# COLO 205 = system: COLO 205
# NCI-H460 = system: NCI-H460
# TK-10 = system: TK-10
# XF498 = system: XF498
# SNB-75 = system: SNB-75
# SW-620 = system: SW-620
# SR = system: SR
# NCI-H23 = system: NCI-H23
# RXF 393 = system: RXF 393
# OVCAR-3 = system: OVCAR-3
# UACC-62 = system: UACC-62
# UO-31 = system: UO-31
# Malme-3M = system: Malme-3M
# LOX IMVI = system: LOX IMVI
# LXFL 529 = system: LXFL 529
# HCT-15 = system: HCT-15
# DLD-1 = system: DLD-1
# OVCAR-8 = system: OVCAR-8
# SNB-19 = system: SNB-19
# 786-0 = system: 786-0
# M14 = system: M14
# SF-295 = system: SF-295
# HCC 2998 = system: HCC 2998
# NCI-H226 = system: NCI-H226
# EKVX = system: EKVX
# SK-MEL-2 = system: SK-MEL-2
# SK-OV-3 = system: SK-OV-3
# CAKI-1 = system: CAKI-1
# SN12C = system: SN12C
# DMS-273 = system: DMS-273
# SF-268 = system: SF-268
# MOLT-4 = system: MOLT-4
# U-251 = system: U-251
# HT-29 = system: HT-29
# K562 = system: K562
# OVCAR-4 = system: OVCAR-4
# ACHN = system: ACHN
# DMS-114 = system: DMS-114
# RPMI-8226 = system: RPMI-8226
# UACC-257 = system: UACC-257
# HL-60 = system: HL-60
# KM-20L2 = system: KM-20L2
# A498 = system: A498
structure (smiles),measurement,setting,value
O=C(CSc1nc(=O)c(-c2ccccc2NC(=O)C(F)(F)F)n[nH]1)NC(=O)Nc1ccccc1,GI50,OVCAR-5,> 100 µM (inactive)
same,GI50,HOP-62,> 100 µM (inactive)
same,GI50,SNB-78,> 100 µM (inactive)
same,GI50,HCT-116,> 100 µM (inactive)
same,GI50,A549,> 100 µM (inactive)
same,GI50,SF-539,> 100 µM (inactive)
same,GI50,CCRF-CEM,94.8 µM (inactive)
same,GI50,SK-MEL-5,> 10 µM (inactive)
same,GI50,M19-MEL,> 100 µM (inactive)
same,GI50,IGROV-1,> 100 µM (inactive)
same,GI50,KM12,> 100 µM (inactive)
same,GI50,NCI-H522,76.4 µM (inactive)
same,GI50,SK-MEL-28,> 100 µM (inactive)
same,GI50,HOP-92,> 100 µM (inactive)
same,GI50,COLO 205,> 100 µM (inactive)
same,GI50,NCI-H460,72.6 µM (inactive)
same,GI50,TK-10,45.9 µM (inactive)
same,GI50,XF498,> 100 µM (inactive)
same,GI50,SNB-75,21.3 µM (inactive)
same,GI50,SW-620,> 100 µM (inactive)
same,GI50,SR,> 100 µM (inactive)
same,GI50,NCI-H23,> 100 µM (inactive)
same,GI50,RXF 393,> 100 µM (inactive)
same,GI50,OVCAR-3,> 100 µM (inactive)
same,GI50,UACC-62,50 µM (inactive)
same,GI50,UO-31,38.1 µM (inactive)
same,GI50,Malme-3M,> 100 µM (inactive)
same,GI50,LOX IMVI,> 100 µM (inactive)
same,GI50,LXFL 529,79.6 µM (inactive)
same,GI50,HCT-15,> 100 µM
same,GI50,DLD-1,18.9 µM (inactive)
same,GI50,OVCAR-8,> 100 µM (inactive)
same,GI50,SNB-19,> 100 µM (inactive)
same,GI50,786-0,> 100 µM (inactive)
same,GI50,M14,> 100 µM (inactive)
same,GI50,SF-295,> 100 µM (inactive)
same,GI50,HCC 2998,> 100 µM (inactive)
same,GI50,NCI-H226,67.8 µM (inactive)
same,GI50,EKVX,55.5 µM (inactive)
same,GI50,SK-MEL-2,> 100 µM (inactive)
same,GI50,SK-OV-3,39 µM (inactive)
same,GI50,CAKI-1,48.1 µM (inactive)
same,GI50,SN12C,> 100 µM (inactive)
same,GI50,DMS-273,90.8 µM (inactive)
same,GI50,SF-268,56.6 µM (inactive)
same,GI50,MOLT-4,> 100 µM (inactive)
same,GI50,U-251,> 100 µM (inactive)
same,GI50,HT-29,> 100 µM (inactive)
same,GI50,K562,61.4 µM (inactive)
CCOC(=O)/C(=C\c1ccccc1)C(=O)O,GI50,OVCAR-5,> 100 µM (inactive)
same,GI50,HOP-62,> 100 µM (inactive)
same,GI50,SNB-78,> 100 µM (inactive)
same,GI50,HCT-116,> 100 µM (inactive)
same,GI50,A549,> 100 µM (inactive)
same,GI50,SF-539,> 100 µM (inactive)
same,GI50,OVCAR-4,> 100 µM (inactive)
same,GI50,CCRF-CEM,> 100 µM (inactive)
same,GI50,SK-MEL-5,> 100 µM (inactive)
same,GI50,M19-MEL,> 100 µM (inactive)
same,GI50,IGROV-1,> 100 µM (inactive)
same,GI50,KM12,> 100 µM (inactive)
same,GI50,NCI-H522,> 100 µM (inactive)
same,GI50,SK-MEL-28,> 100 µM (inactive)
same,GI50,HOP-92,> 100 µM (inactive)
same,GI50,COLO 205,> 100 µM (inactive)
same,GI50,NCI-H460,> 100 µM (inactive)
same,GI50,XF498,> 100 µM (inactive)
same,GI50,ACHN,> 100 µM (inactive)
same,GI50,SW-620,> 100 µM (inactive)
same,GI50,DMS-114,> 100 µM (inactive)
same,GI50,RPMI-8226,> 100 µM (inactive)
same,GI50,SR,> 100 µM (inactive)
same,GI50,NCI-H23,> 100 µM (inactive)
same,GI50,OVCAR-3,> 100 µM (inactive)
same,GI50,UACC-62,> 100 µM (inactive)
same,GI50,UO-31,> 100 µM (inactive)
same,GI50,Malme-3M,> 100 µM (inactive)
same,GI50,LOX IMVI,> 100 µM (inactive)
same,GI50,HCT-15,> 100 µM
same,GI50,UACC-257,> 100 µM (inactive)
same,GI50,HL-60,> 100 µM (inactive)
same,GI50,OVCAR-8,> 100 µM (inactive)
same,GI50,SNB-19,> 100 µM (inactive)
same,GI50,KM-20L2,> 100 µM (inactive)
same,GI50,A498,> 100 µM (inactive)
same,GI50,786-0,> 100 µM (inactive)
same,GI50,M14,> 100 µM (inactive)
same,GI50,SF-295,> 100 µM (inactive)
same,GI50,HCC 2998,> 100 µM (inactive)
same,GI50,NCI-H226,> 100 µM (inactive)
same,GI50,EKVX,> 100 µM (inactive)
same,GI50,SK-MEL-2,> 100 µM (inactive)
same,GI50,SK-OV-3,> 100 µM (inactive)
same,GI50,CAKI-1,> 100 µM (inactive)
same,GI50,SN12C,> 100 µM (inactive)
same,GI50,DMS-273,> 100 µM (inactive)
same,GI50,SF-268,> 100 µM (inactive)
same,GI50,MOLT-4,> 100 µM (inactive)
same,GI50,U-251,> 100 µM (inactive)
same,GI50,HT-29,> 100 µM (inactive)
same,GI50,K562,> 100 µM (inactive)

# Source: ChEMBL document CHEMBL1201862, “PubChem BioAssay data set” (2004)
